Results on two compounds are retold here after article PMC12164290, “Immune-modulatory effects of Spindlin-1 inhibitors” (Clinical and Experimental Immunology, 2025).

Like-named read-outs stand apart in the source and are kept apart here.

The subject of data set [1] is B cells. Put plainly: B cell activation with IL-21, sCD40L, CpG, anti-IgM (proliferation, plasmablasts, IgG/IgA, viability). Conditions: for B cell proliferation / formation of plasmablasts / release of IgA / release of IgG: IL-21, sCD40L, CpG, anti-IgM, 5 days, A366 and MS31 concentration-dependent. The data set is classed as cell-based, human. How it is done:
B cells were activated as described previously. Briefly, 1.25 × 10^5 B cells (stained with 0.25 µM CTV) per well were seeded in a 48 well plate and pretreated with A366, MS31, rapamycin, or vehicle (DMSO) for 30 min and then stimulated with 2.5 μg/ml CpG, 5 μg/ml unconjugated goat antihuman IgM F(ab′)2 fragments, 1 μg/ml sCD40L, and 50 ng/ml recombinant human IL-21 for 5 days.
(§1) For analysis of the surface markers, 1.5–2*10^5 cells of each sample were blocked with human FcR Blocking Reagent (15 min, 4 °C). Afterwards, samples were stained with up to 7 µl of a mixture of different surface marker antibodies (15 min, 4 °C) and 250 µl of 10 % FCS/PBS were added. After centrifugation (300 g, 5 min, 4 °C) samples were resuspended in 100 µl PBS and measured with MACSQuant® Analyzer 10 flow cytometer. For M1-/M2-MdMs, anti-CD86, anti-CD14, anti-HLA-DR, anti-CD206, anti-CD80, anti-TREM2, and anti-CD163 were used. For CD4^+ T cells, anti-CD69, anti-CD45RO, anti-CD134, anti-CD154, anti-CD3, anti-CD25 were employed. For B cells, anti-CD27, anti-CD19, and anti-CD38 were applied. Zombie Aqua™ Fixable Viability Kit (1:500 dilution, BioLegend, San Diego, CA, USA) (for CD4^+ T cells, macrophages) or Annexin/PE staining (BD Biosciences, Heidelberg, Germany) (for B cells) was used to discriminate living and dead cells according to the manufacturers protocol. For T cell and B cell proliferation assays, freshly isolated T and B cells were stained with CTV and the decrease in CTV as a result of cell proliferation was detected by flow cytometry. CTV positive cells were gated in high proliferating cells (low CTV level), medium proliferating cells (medium CTV level), and nonproliferating cells (high CTV level). Plasmablasts were characterized as CD27^+CD38^+ cells, naïve B as CD19^+CD27^lowCD38^med, and memory B cells as CD19^+CD27^med CD38^low (Supplementary Fig. 1). For M1 MdMs, the cell population was gated using FSC/SSC channel, for M2 MdMs, the CD163^med population was gated since IL4 downregulates CD163 [18] and for CD4^+ T cells, CD3^+CD25^+ cells were gated. Geometric mean of the fluorescent intensity was calculated using FlowJo software V10 (Treestar, Ashland, TN, USA). Fold induction of surface marker expression was calculated using the DMSO-treated cells as control.
(§2) For determination of cytokine concentrations (IL10, IL17, IL8, IL6, IFNγ, CCL2) in the supernatant of humane immune cells, cytometric bead array (BD Biosciences, Heidelberg, Germany) was used. For the detection of IgG, IgA, PGE2, CCL18, and CCL17 an ELISA was performed. The cytometric bead arrays and the ELISAs were performed according to the manufacturers protocol.

The subject of data set [2] is B cells. The experiment in a line: viability assay (Orangu, formazan-based), B cells. Also on record: species or system human. Conditions: 48 h, n = 3, read-out: B cell viability IC50. How it is done:
(§3) 2 × 10^5 CD4^+ T cells, 1 × 10^5 B cells, 1 × 10^5 monocytes, 1 × 10^5 M1 MdMs, or 1 × 10^5 M2 MdMs were treated with A366, MS31, or vehicle for 48 h. The viability was determined with the Orangu^TM assay as described by the manufacturer.

The subject of data set [3] is M1 MdMs. The experiment in a line: energy metabolism (Seahorse OCR/ECAR), M1 MdMs. The settings on record: polarized 48 h in presence of compound. The data set is classed as cell-based, human. On the procedure:
(§4) The energy metabolism was determined as described previously. Briefly, for the analysis of the extracellular acidification rate (ECAR) and the oxygen consumption rate (OCR) for human M1 MdMs, M2 MdMs, and activated B-/ CD4^+ T cells, the Seahorse XFe96 FluxPak (Agilent, Waldbronn, Germany) was used as recommended by the supplier. MdMs were polarized to M1 or M2 MdMs, B- and CD4^+ T cells were activated in the presence of A366, MS31, or vehicle (DMSO) for 48 h (M1 MdMs), 24 h (M2 MdMs) or 5 days (T/B cells). Cells were washed with Seahorse XF RPMI medium pH 7.4 (Agilent, Waldbronn, Germany), and OCR and ECAR were measured for a period of 120 min using the Seahorse XFe96 Analyzer (Agilent, Waldbronn, Germany) and analyzed by Wave Software (Agilent, Waldbronn, Germany). For T/B cells, the values after 50 min of stimulation of samples were related to the unstimulated control sample. For macrophages, the values at 50 min in treated samples were related to the vehicle control.

For data set [4], the system named is primary human immune cells. Put plainly: viability of primary human immune cells, formazan-based Orangu assay (ranges over cell types). The settings on record: 48 h. How it is done: as §3
In data set [5] the test system is CD4+ T cells. The experiment in a line: viability assay (Orangu, formazan-based), CD4+ T cells. Also on record: species or system human. The settings on record: 48 h, n = 3, read-out: T cell viability IC50. How it is done:
as §3

The subject of a further data set is monocytes. The experiment in a line: viability assay (Orangu, formazan-based), monocytes. The data set is classed as cell-based, human. Conditions: 48 h, n = 3, read-out: Monocyte viability IC50. On the procedure: as §3
The test system of data set [6] is M2 MdMs. Put plainly: viability assay (Orangu, formazan-based), M2 MdM. Format: cell-based, human. The settings on record: 48 h, n = 3. On the procedure:
as §3

The next data set deals with M2 macrophages. Put plainly: polarization of MdMs to M2 macrophages (surface markers, cytokines, viability). Format: cell-based, human. How it is done:
(§5) The generation of monocyte-derived macrophages (MdMs) was performed as previously described. Briefly, 0.5 × 10^6 CD14^+ cells/well were differentiated to macrophages in the presence of 10 ng/ml M-CSF (for M2 macrophages) or 10 ng/ml GM-CSF (for M1 macrophages) for 7 days. The macrophages were polarized in the presence of different concentrations of A366, MS31, or vehicle (DMSO) in 48-well plates. After pre-incubation with test substances or DMSO for 30 min, stimulants for differentiation were added: 20 ng/ml IFNγ for M1 macrophages and 10 ng/ml IL4 for M2 macrophages and incubated for 48h and 24h, respectively.
as §1, §2

Data set [7] has as its system Spindlin-1-H3K4me3-interaction. Further details: method as in PMID 31260300, PMID 34492335. The settings on record: cited from earlier work.
For the next data set, the system named is M1 macrophages. The experiment in a line: polarization of MdMs to M1 macrophages (surface markers, cytokines, viability). Format: cell-based, human. On the procedure:
as §5, §1, §2

In data set [8] the test system is M2 MdMs. Put plainly: energy metabolism (Seahorse OCR/ECAR), M2 MdMs. The data set is classed as cell-based, human. Conditions: polarized 24 h in presence of compound. On the procedure: as §4
Data set [9] has as its system CD4+ T cells. Put plainly: CD4+ T cell activation with anti-CD3/anti-CD28 (proliferation, surface markers, cytokines, viability). The data set is classed as cell-based.
Procedure: CTV staining was performed according to the protocol of supplier.
For analysis of the surface markers, 1.5–2*10^5 cells of each sample were blocked with human FcR Blocking Reagent (15 min, 4 °C). Afterwards, samples were stained with up to 7 µl of a mixture of different surface marker antibodies (15 min, 4 °C) and 250 µl of 10 % FCS/PBS were added. After centrifugation (300 g, 5 min, 4 °C) samples were resuspended in 100 µl PBS and measured with MACSQuant® Analyzer 10 flow cytometer. […] For CD4^+ T cells, anti-CD69, anti-CD45RO, anti-CD134, anti-CD154, anti-CD3, anti-CD25 were employed. […] Zombie Aqua™ Fixable Viability Kit (1:500 dilution, BioLegend, San Diego, CA, USA) (for CD4^+ T cells, macrophages) or Annexin/PE staining (BD Biosciences, Heidelberg, Germany) (for B cells) was used to discriminate living and dead cells according to the manufacturers protocol. For T cell and B cell proliferation assays, freshly isolated T and B cells were stained with CTV and the decrease in CTV as a result of cell proliferation was detected by flow cytometry. CTV positive cells were gated in high proliferating cells (low CTV level), medium proliferating cells (medium CTV level), and nonproliferating cells (high CTV level). […] For M1 MdMs, the cell population was gated using FSC/SSC channel, for M2 MdMs, the CD163^med population was gated since IL4 downregulates CD163 [18] and for CD4^+ T cells, CD3^+CD25^+ cells were gated. Geometric mean of the fluorescent intensity was calculated using FlowJo software V10 (Treestar, Ashland, TN, USA). Fold induction of surface marker expression was calculated using the DMSO-treated cells as control.
Data set [10] deals with M1 MdMs. The experiment in a line: viability assay (Orangu, formazan-based), M1 MdM. Format: cell-based, human. The settings on record: 48 h, n = 3. On the procedure: as §3
The subject of data set [11] is B cells. The experiment in a line: energy metabolism (Seahorse OCR/ECAR), activated B cells. The data set is classed as cell-based, human. Conditions: 5 days. How it is done: as §4
[12] abbreviates: M2 polarization, 24 h, supernatant.
[13] abbreviates: M1 polarization, 48 h, flow cytometry.
Where [14] appears, read: M1 polarization, 48 h, supernatant.

`COc1c(CN)cc(CN)cc1OCCCN1Cc2ccccc2C1` [MS31]: in the data set with B cells [1] (2.5 µM), the “B cell activation (proliferation, plasmablast formation, release of immunoglobulins A and G)” value is given as “clearly prevented”. For the same compound, in the data set with B cells [1], the B cell proliferation result is on record as “markedly reduced”, the formation of plasmablasts entry is recorded as “markedly reduced”, the “release of IgA” value was “markedly reduced” and the “release of IgG” value was “markedly reduced”. The IC50 (commonly the concentration that inhibits the measured activity by half) in the data set on B cells [2] is 11 µM. Besides, in the data set with M1 MdMs [3], the “energy metabolism (OCR, ECAR) of M1 MdMs” value was “did not affect”. For the same compound, the IC50 in data set [4] (range for CD4+ T cells and B cells, read-out: viability IC50 values) was 11 to 22 µM. Moreover, the IC50 in data set [4] (range over all immune cell types tested, read-out: IC50, immune cell type-dependent cytotoxicity) fell in the range of 11 to 3120 µM. In the data set on CD4+ T cells [5], the IC50 worked out at 22 µM. Further, in the data set with monocytes, the IC50 came to 42 µM. The compound also came in with an IC50 with M2 MdMs [6] of 89 µM. Besides, the “overall effect on M2 polarization” value with M2 macrophages was “may weaken M2 polarization”. Further, in the data set on M2 macrophages (0–50 µM, zombie staining), the “cytotoxicity during polarization of macrophages to M2 MdMs” value is given as “did not induce cytotoxicity”. Also, the “CD86 surface marker expression” value in the data set on M2 macrophages (M2 polarization, 24 h, flow cytometry) is “reduced”. Further, in the data set with M2 macrophages (setting [12]), the CCL2 release entry is “reduced”, the CCL18 release result was “increased”, the IL10 release result is recorded as “reduced” and the PGE2 release entry is “reduced”. Besides, in data set [7], the IC50 is 0.077 µM. In the data set on M1 macrophages, the “overall effect on M1 polarization” value is “may shift M1 to an M2 phenotype”. The “cytotoxicity during polarization of M1 macrophages” value with M1 macrophages (0–50 µM, 48 h, zombie staining) is recorded as “did not induce cytotoxicity”. In the data set on M1 macrophages (setting [13]), the “CD163 surface marker expression” value is reported as “slightly increased” and the “TREM2 surface marker expression” value was “slightly increased”. Also, in the data set on M1 macrophages (setting [14]), the “release of IFNγ” value is recorded as “upregulated the release of IFNγ more pronouncedly” and the “release of IL8” value is “significantly inhibited”. For the same compound, the “OCR in M2 MdMs” value in the data set on M2 MdMs [8] is listed as “only slightly increased”. Moreover, the “cytotoxic effects on CD4+ T cells” value in the data set on CD4+ T cells [9] (0–10 µM, 5 days) is given as “no cytotoxic effects”. For the same compound, in the data set with CD4+ T cells [9] (activated CD4+ T cells, 5 days), the CD134 expression result is given as “increased”. Besides, in the data set with CD4+ T cells [9] (anti-CD3/anti-CD28, 5 days), the “activation of CD4+ T cells (CD25 positive, CD25 and CD69 positive cells, CD69)” value is “did not influence”. For the same compound, in the data set on CD4+ T cells [9] (anti-CD3/anti-CD28, 5 days, CTV), the “proliferation of CD4+ T cells” value was “did not affect”. The compound further displayed an IC50 with M1 MdMs [10] of 3120 µM.
In the case of `CO[C@H]1C[C@@H]2CC[C@@H](C)[C@@](O)(O2)C(=O)C(=O)N2CCCC[C@H]2C(=O)O[C@H]([C@H](C)C[C@@H]2CC[C@@H](O)[C@H](OC)C2)CC(=O)[C@H](C)/C=C(\C)[C@@H](O)[C@@H](OC)C(=O)[C@H](C)C[C@H](C)/C=C/C=C/C=C/1C` [rapamycin], in the data set with B cells [1], the B cell proliferation entry is on record as “inhibit”, the formation of plasmablasts result was “inhibit”, the “release of IgA” value is listed as “inhibit” and the “release of IgG” value is “inhibit”. Also, in the data set with B cells [11], the “energy metabolism of activated B cells (OCR, ECAR)” value is “induced both glycolysis and oxidative phosphorylation”.
